± gives the standard deviation of the averaged measurements.
How the values were obtained:
Settings in all cases: 72 h
HL-60 [1] = test: cell viability (% survival relative to DMSO control); higher = less cytotoxic
Method in brief: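 HL-60 cells in RPMI 1640 with 10% FBS were rescreened against the full library on 384-well plates at five tenfold concentrations, 1–10,000 nM, in duplicate. Each screen was run with DMSO or 100 nM of one of three metabolic inhibitors, for 72 h at 37 °C, 5% CO2. Viability was read by CellTiter-Glo and normalised to DMSO and 10 μM proteasome-inhibitor wells. Where given, area under the curve came from four-parameter log-logistic fits (drc, PharmacoGx).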

LAMA-84 [2] = test: cell viability (% survival relative to DMSO control, bortezomib = 0%); higher = less cytotoxic
Method in brief: (§1)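 Fifteen myeloid leukaemia cell lines (10 AML, 5 CML) were seeded at a density titrated to the linear growth range into 384-well plates pre-printed with compounds at 1, 10, 100, 1000 or 10000 nM in duplicate. Plates were incubated for 72 h at 37 °C with 5% CO2. Viability was then read by CellTiter-Glo luminescence. Each value is percent survival averaged over the duplicates, with vehicle set to 100% and a 10 µM positive control to 0%.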

Mono-Mac-6 [3] = test: as above
Method in brief: as §1

K-562 [4] = test: as above
Method in brief: as §1

ML-2 [5] = test: as above
Method in brief: as §1

BV-173 [6] = test: as above
Method in brief: as §1

KU-812 [7] = test: as above
Method in brief: as §1

HEL [8] = test: as above
Method in brief: as §1

MV4-11 [9] = test: as above
Method in brief: as §1

NOMO-1 [10] = test: as above
Method in brief: as §1

SHI-1 [11] = test: as above
Method in brief: as §1

THP-1 [12] = test: as above
Method in brief: as §1

HL-60 [13] = test: as above
Method in brief: as §1

LAMA-84 [14] = system: LAMA-84
Method in brief: (§2)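 The IC50 was read from log-logistic dose–response fits. Fifteen myeloid leukaemia lines were exposed for 72 h at 37 °C with 5% CO2 to five tenfold doses from 1 to 10,000 nM in duplicate. ATP luminescence, normalised to vehicle and to a 10 µM positive control, was fitted with four parameters.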

KG-1 = system: KG-1
Method in brief: as §2

Mono-Mac-6 [15] = system: Mono-Mac-6
Method in brief: as §2

K-562 [16] = system: K-562
Method in brief: as §2

ML-2 [17] = system: ML-2
Method in brief: as §2

BV-173 [18] = system: BV-173
Method in brief: as §2

MOLM-13 = system: MOLM-13
Method in brief: as §2

KU-812 [19] = system: KU-812
Method in brief: as §2

HEL [20] = system: HEL
Method in brief: as §2

MV4-11 [21] = system: MV4-11
Method in brief: as §2

NOMO-1 [22] = system: NOMO-1
Method in brief: as §2

SHI-1 [23] = system: SHI-1
Method in brief: as §2

THP-1 [24] = system: THP-1
Method in brief: as §2

KCL-22 = system: KCL-22
Method in brief: as §2

HL-60 [25] = system: HL-60
Method in brief: as §2

Compound Cc1cn([C@H]2C[C@H](O)[C@@H](COP(=O)(O)OP(=O)(O)O)O2)c(=O)[nH]c1=O [Thymidine diphosphate] has a cell viability (HL-60 [1]; 0.001 µM, co-treatment: AZD3965 100 nM) of 97.44 ± 0.59%, a cell viability (HL-60 [1]; 0.001 µM, co-treatment: DMSO vehicle) of 101 ± 1.5% and a cell viability (HL-60 [1]; 0.001 µM, co-treatment: GSK2194069 100 nM) of 104.9 ± 0.34%. For the same compound, the cell viability (HL-60 [1]; 0.001 µM, co-treatment: pictilisib 100 nM) was 105 ± 1.4%, the cell viability (HL-60 [1]; 0.01 µM, co-treatment: AZD3965 100 nM) was 97.9 ± 1% and the cell viability (HL-60 [1]; 0.01 µM, co-treatment: DMSO vehicle) was 100.1 ± 0.28%. For the same compound, the cell viability (HL-60 [1]; 0.01 µM, co-treatment: GSK2194069 100 nM) was 75.9 ± 32%, the cell viability (HL-60 [1]; 0.01 µM, co-treatment: pictilisib 100 nM) was 94 ± 2.1% and the cell viability (HL-60 [1]; 0.1 µM, co-treatment: AZD3965 100 nM) was 101 ± 0.85%. The cell viability (HL-60 [1]; 0.1 µM, co-treatment: DMSO vehicle) was 97.7 ± 1.8%, the cell viability (HL-60 [1]; 0.1 µM, co-treatment: GSK2194069 100 nM) was 97.8 ± 6% and the cell viability (HL-60 [1]; 0.1 µM, co-treatment: pictilisib 100 nM) was 106 ± 2.9%. For the same compound, the cell viability (HL-60 [1]; 1 µM, co-treatment: AZD3965 100 nM) was 102 ± 2.8%, the cell viability (HL-60 [1]; 1 µM, co-treatment: DMSO vehicle) was 101 ± 2.7% and the cell viability (HL-60 [1]; 1 µM, co-treatment: GSK2194069 100 nM) was 104 ± 6.7%. It also gave a cell viability (HL-60 [1]; 1 µM, co-treatment: pictilisib 100 nM) of 111 ± 1.5%, a cell viability (HL-60 [1]; 10 µM, co-treatment: AZD3965 100 nM) of 98.5 ± 4.8% and a cell viability (HL-60 [1]; 10 µM, co-treatment: DMSO vehicle) of 95.1 ± 5.3%. For the same compound, the cell viability (HL-60 [1]; 10 µM, co-treatment: GSK2194069 100 nM) was 95.3 ± 9.4%, the cell viability (HL-60 [1]; 10 µM, co-treatment: pictilisib 100 nM) was 89.1 ± 5.6% and the cell viability (LAMA-84 [2]; 1 nM) was 97.1%. For the same compound, the cell viability (LAMA-84 [2]; 10 nM) was 97.9%, the cell viability (LAMA-84 [2]; 100 nM) was 106% and the cell viability (LAMA-84 [2]; 1000 nM) was 94.5%. It also gave a cell viability (LAMA-84 [2]; 10000 nM) of 86.7%, a cell viability (Mono-Mac-6 [3]; 1 nM) of 95.1% and a cell viability (Mono-Mac-6 [3]; 10 nM) of 88.1%. The cell viability (Mono-Mac-6 [3]; 100 nM) was 105%, the cell viability (Mono-Mac-6 [3]; 1000 nM) was 91.8% and the cell viability (Mono-Mac-6 [3]; 10000 nM) was 92.5%. For the same compound, the cell viability (K-562 [4]; 1 nM) was 104%, the cell viability (K-562 [4]; 10 nM) was 91.1% and the cell viability (K-562 [4]; 100 nM) was 105%. For the same compound, the cell viability (K-562 [4]; 1000 nM) was 100%, the cell viability (K-562 [4]; 10000 nM) was 99.6% and the cell viability (ML-2 [5]; 1 nM) was 95.6%. It also gave a cell viability (ML-2 [5]; 10 nM) of 87.9%, a cell viability (ML-2 [5]; 100 nM) of 95.5% and a cell viability (ML-2 [5]; 1000 nM) of 96.4%. The cell viability (ML-2 [5]; 10000 nM) was 106%, the cell viability (BV-173 [6]; 1 nM) was 92.3% and the cell viability (BV-173 [6]; 10 nM) was 83.5%. The cell viability (BV-173 [6]; 100 nM) was 98.2%, the cell viability (BV-173 [6]; 1000 nM) was 78% and the cell viability (BV-173 [6]; 10000 nM) was 39%. It also gave a cell viability (KU-812 [7]; 1 nM) of 88.2%, a cell viability (KU-812 [7]; 10 nM) of 93.6% and a cell viability (KU-812 [7]; 100 nM) of 109%. The cell viability (KU-812 [7]; 1000 nM) was 96.9%, the cell viability (KU-812 [7]; 10000 nM) was 102% and the cell viability (HEL [8]; 1 nM) was 99.1%. It also gave a cell viability (HEL [8]; 10 nM) of 89.4%, a cell viability (HEL [8]; 100 nM) of 93.2% and a cell viability (HEL [8]; 1000 nM) of 106%. It also gave a cell viability (HEL [8]; 10000 nM) of 103%, a cell viability (MV4-11 [9]; 1 nM) of 95.7% and a cell viability (MV4-11 [9]; 10 nM) of 87.8%. It also gave a cell viability (MV4-11 [9]; 100 nM) of 98.6%, a cell viability (MV4-11 [9]; 1000 nM) of 102% and a cell viability (MV4-11 [9]; 10000 nM) of 96.4%. It also gave a cell viability (NOMO-1 [10]; 1 nM) of 98.1%, a cell viability (NOMO-1 [10]; 10 nM) of 99.8% and a cell viability (NOMO-1 [10]; 100 nM) of 100%. For the same compound, the cell viability (NOMO-1 [10]; 1000 nM) was 98.6%, the cell viability (NOMO-1 [10]; 10000 nM) was 95.8% and the cell viability (SHI-1 [11]; 1 nM) was 96.2%. The cell viability (SHI-1 [11]; 10 nM) was 89.3%, the cell viability (SHI-1 [11]; 100 nM) was 110% and the cell viability (SHI-1 [11]; 1000 nM) was 91.8%. For the same compound, the cell viability (SHI-1 [11]; 10000 nM) was 107%, the cell viability (THP-1 [12]; 1 nM) was 99% and the cell viability (THP-1 [12]; 10 nM) was 92.5%. For the same compound, the cell viability (THP-1 [12]; 100 nM) was 95.8%, the cell viability (THP-1 [12]; 1000 nM) was 95.7% and the cell viability (THP-1 [12]; 10000 nM) was 99.3%. For the same compound, the cell viability (HL-60 [13]; 1 nM) was 88.6%, the cell viability (HL-60 [13]; 10 nM) was 85.2% and the cell viability (HL-60 [13]; 100 nM) was 87.7%. For the same compound, the cell viability (HL-60 [13]; 1000 nM) was 109%, the cell viability (HL-60 [13]; 10000 nM) was 104% and the “IC50 (cell viability)” value (LAMA-84 [14]) was > 10 µM. For the same compound, the “IC50 (cell viability)” value (KG-1) was > 10 µM, the “IC50 (cell viability)” value (Mono-Mac-6 [15]) was > 10 µM and the “IC50 (cell viability)” value (K-562 [16]) was > 10 µM. The “IC50 (cell viability)” value (ML-2 [17]) was > 10 µM, the “IC50 (cell viability)” value (BV-173 [18]) was 4.03 µM and the “IC50 (cell viability)” value (MOLM-13) was > 10 µM. The “IC50 (cell viability)” value (KU-812 [19]) was > 10 µM, the “IC50 (cell viability)” value (HEL [20]) was > 10 µM and the “IC50 (cell viability)” value (MV4-11 [21]) was > 10 µM. The “IC50 (cell viability)” value (NOMO-1 [22]) was > 10 µM, the “IC50 (cell viability)” value (SHI-1 [23]) was > 10 µM and the “IC50 (cell viability)” value (THP-1 [24]) was > 10 µM. For the same compound, the “IC50 (cell viability)” value (KCL-22) was > 10 µM and the “IC50 (cell viability)” value (HL-60 [25]) was > 10 µM.

Reference: the supplement of paper PMC8671470
